In publication PMC4776139, “Extended string-like binding of the phosphorylated HP1α N-terminal tail to the lysine 9-methylated histone H3 tail” (Scientific Reports, 2016):

Key:
[1] = system: H3K9me peptide (22-mer, amino acids 1–21 of histone H3 with a C-terminal tyrosine); assay: Isothermal titration calorimetry (ITC) of HP1α chromodomain constructs with H3K9me peptide; format: binding; details: for ΔS (entropy change) / Ka / ΔH (enthalpy change) / Kd: 20 °C; for ΔS (entropy change): calculated from Kd and ΔH; for Ka / ΔH (enthalpy change): pH 6.80, one-site binding model; for Kd: 20 mM KPB (pH 6.80), 10 mM NaCl; for fold weaker binding to H3K9me as compared with NCD^Δ1–9: relative to NCD^Δ1–9; for fold stronger binding to H3K9me than the CD alone: relative to CD (NCD^Δ1–19); for times more strongly bound H3K9me than the CD: relative to CD
Method: Protein solution (40 μM) was loaded into a VP-ITC isothermal titration calorimeter (Microcal, INC.) cell (active cell volume 1.4 ml). The solution was titrated against 400 μM ligand solution via a 250 μl titration syringe. Experiments were carried out at 20 °C. The ligand solution was prepared in the same buffer as the protein (20 mM KPB (pH 6.80), 10 mM NaCl). The heat of dilution generated by the ligand was subtracted, and the binding isotherms were fitted to a one-site binding model by using Origin 7 Software (Microcal, INC.). From the values of Kd and ΔH, the thermodynamic parameters, ΔG and ΔS were calculated according to the basic thermodynamic equations;

[2] = Small angle X-ray scattering (SAXS); format: physicochemical; details: for association state, in words: SAXS at 5, 10 and 15 mg/ml, no scattering from aggregated protein; for association state, in words / Dmax (maximum particle dimension): pH 6.8, 20 °C; for Rg (radius of gyration) / Estimated molecular weight (association state) / Dmax (maximum particle dimension): SAXS; for Rg (radius of gyration): Guinier plot; for Estimated molecular weight (association state): from I(0)/c compared to hen egg white lysozyme; for Dmax (maximum particle dimension): from P(r) function (GNOM); on Dmax (maximum particle dimension): values in Å; on Rg (radius of gyration): values in Å
Method: To confirm the structural differences between unmod-NCD and phos-NCD, small angle X-ray scattering (SAXS) experiments were carried out on CD, unmod-NCD, and phos-NCD. To check inter-particle interference, SAXS data were collect at three different protein concentrations, 5, 10 and 15 mg/ml (Supplementary Fig. S4). The radius of gyration Rg, and the estimated molecular weight from the forward scattering intensity I(0), of CD, unmod-NCD, and phos-NCD are summarized in Fig. 3. […] The Rg value of the CD at the three different protein concentrations was estimated as 14.0 ± 0.3, 13.8 ± 0.3 and 13.7 ± 0.2 Å, which are close to the Rg value calculated from the NMR structure of the CD (15.0 Å).
We converted the scattering profiles at 5 mg/ml to the P(r) function and the estimated maximum particle dimension, Dmax (Fig. 3). […] The Dmax of unmod-NCD (79 Å) and phos-NCD (94 Å) was larger than that of the CD (56 Å). The extended tail of the P(r) function and larger Dmax for unmod-NCD and phos-NCD is due to scattering from the N-terminal tail region in each case.
SAXS measurements were performed at 20 °C with a MicroMax007HF X-ray generator (Rigaku). A PILATUS100K detector (DECTRIS) at a distance of 561 mm from the sample was used to measure scattering intensities. Each sample solution was transferred to a quartz-window cell with a 1 mm path length. Circular averaging of the scattering intensities was carried out to obtain one-dimensional scattering data I(q) as a function of q (q = 4πsinθ/λ, where 2θ is the scattering angle and λ is the X-ray wavelength 1.5418 Å). To correct for interparticle interference, I(q) data were collected at three different protein concentrations (5, 10, and 15 mg/ml in 50 mM KPB (pH 6.8), 500 mM NaCl, and 5 mM DTT.). The total exposure times were 6 hours for 5 mg/ml, and 3 hours for both 10mg/ml and 15mg/ml. […] To estimate the molecular weight of samples, I(q) data were collected for hen egg white lysozyme (5.2 mg/ml in 50 mM KPB (pH 6.8), 500 mM NaCl). The data were processed by using the software applications embedded in the ATSAS package [ http://www.embl-hamburg.de/biosaxs/software.html]. The radius of gyration Rg and forward scattering intensity I(0) were estimated from the Guinier plot[35] of I(q) in the smaller angle region of qRg < 1.3. The distance distribution function P(r) was calculated in the program GNOM[36], where the experimental I(q) data were used in a q-range from 0.031 to 0.250 Å^−1. The maximum particle dimension Dmax was estimated from the P(r) function as the distance r for which P(r) = 0[35]. The I(q) and Rg of 20 models corresponding to the NMR structures were calculated by using the program CRYSOL[37] and averaged. The molecular weight of the sample was estimated by comparing I(0)/c (where c is the protein concentration) of the sample to that of lysozyme.

[3] = HSQC dilution check for dimer or multimer association; format: physicochemical; details: 10-fold diluted samples
Text: It might be possible that the differences in chemical shift observed between unmod-NCD and phos-NCD originate from different dimer or multimer associations due to their N-terminal tails.

[4] = VP-ITC, protein 40 μM in cell, titrated with 400 μM H3K9me peptide, one-site binding model
[5] = 5 mg/ml, exposure 1 h x6, 50 mM KPB (pH 6.8), 500 mM NaCl, 5 mM DTT, 20 °C
[6] = 10 mg/ml, exposure 1 h x3, pH 6.8, 20 °C
[7] = 15 mg/ml, exposure 1 h x3, pH 6.8, 20 °C

Substance | ΔS (entropy change) [1] | Ka [1] | ΔH (enthalpy change) [1] | Kd [1, 4] | fold weaker binding to H3K9me as compared with NCD^Δ1–9 [1] | fold stronger binding to H3K9me than the CD alone [1] | association state, in words [2] | Rg (radius of gyration) [2, 5] | Estimated molecular weight (association state) ([2]; 5 mg/ml) | Dmax (maximum particle dimension) ([2]; 5 mg/ml) | Rg (radius of gyration) [2, 6] | Estimated molecular weight (association state) ([2]; 10 mg/ml) | Rg (radius of gyration) [2, 7] | Estimated molecular weight (association state) ([2]; 15 mg/ml) | HSQC signal changes upon dilution [3] | times more strongly bound H3K9me than the CD [1] | fold stronger affinity for H3K9me than unmod-NCD ([1]; relative to unmod-NCD) | binding to H3K9me relative to un-phosphorylated NCD^Δ1–9, in words [1] | Kd ([1]; value in nM)
NCD^Δ1–4: N-terminal deletion mutant, amino acids 5–80 of HP1α | 7.75 cal/mol/K | 1.31e+06 ± 50700 M⁻¹ | -5.933 ± 0.02294 kcal/mol | 760 nM | about 4 -fold | – | – | – | – | – | – | – | – | – | – | – | – | – | –
NCD^Δ1–9: N-terminal deletion mutant, amino acid 10–80 of HP1α | 5.66 cal/mol/K | 6.04e+06 ± 255000 M⁻¹ | -7.435 ± 0.01679 kcal/mol | 160 nM | – | about 83 -fold | – | – | – | – | – | – | – | – | – | – | – | – | –
NCD^Δ1–14: acidic segment plus CD, amino acids 15–80 of HP1α | 1.13 cal/mol/K | 397000 ± 40700 M⁻¹ | -7.178 ± 0.1141 kcal/mol | 2520 nM | – | about 5 -fold | – | – | – | – | – | – | – | – | – | – | – | – | –
NCD^Δ1–19: CD domain alone, amino acids 20–80 of HP1α | -13.0 cal/mol/K | 75000 ± 2300 M⁻¹ | -1.036E4±103.0 cal/mol | 13300 nM | – | – | monomer | 14.0 ± 0.3 Å | 6.6 kDa | 56 Å | 13.8 ± 0.3 Å | 6.0 kDa | 13.7 ± 0.2 Å | 6.1 kDa | – | – | – | – | –
phos-NCD: chromodomain with phosphorylated N-terminal tail, amino acids 1–80 of HP1α, co-expressed with casein kinase II | 2.23 cal/mol/K | 5.87e+06 ± 521000 M⁻¹ | -8.424 ± 0.044 kcal/mol | 170 nM | – | – | monomer | 18.9 ± 0.4 Å | 11.7 kDa | 94 Å | 19.4 ± 0.4 Å | 11.7 kDa | 19.8 ± 0.3 Å | 11.9 kDa | no significant signal changes were observed | about 80 times | approximately 10 -fold | – | –
phos-NCD^Δ1–4: NCD^Δ1–4 (amino acids 5–80) with phosphorylated serine residues | 1.14 cal/mol/K | 2.61e+06 ± 236000 M⁻¹ | -8.271 ± 0.05999 kcal/mol | 380 nM | – | – | – | – | – | – | – | – | – | – | – | – | – | recovered to a value similar to that of un-phosphorylated NCD^Δ1–9 | –
phos-NCD^Δ1–9: phosphorylated NCD^Δ1–9 form, amino acids 10–80 of HP1α | 12.6 cal/mol/K | 2.58e+07 ± 5.24e+06 M⁻¹ | -6.233 ± 0.04246 kcal/mol | – | – | about 330 -fold | – | – | – | – | – | – | – | – | – | more than 300 times | – | – | 40 nM
unmod-NCD: chromodomain with un-phosphorylated N-terminal tail, amino acids 1–80 of HP1α | 3.16 cal/mol/K | 564000 ± 25900 M⁻¹ | -6.79 ± 0.04533 kcal/mol | 1770 nM | 6 -fold | – | monomer | 17.2 ± 0.4 Å | 8.8 kDa | 79 Å | 17.0 ± 0.3 Å | 8.5 kDa | 17.4 ± 0.3 Å | 8.8 kDa | no significant signal changes were observed | – | – | – | –
